Patent US20260297129A1, “PEPTIDES AS SELECTIVE IL-23 RECEPTOR INHIBITORS” (SANOFI, priority 2023, published 2026)
Converted amounts (≈) assume the structure as drawn. Like-named read-outs stand apart in the source and are kept apart here. Numbered stars: 1 amine (or outer) side, 2 acyl side, 3 side chain; on linkers, the order of the positions; unused ones are H or OH. Bridge positions count the residues as written; N and C are the ends. Square brackets hold non-standard residues; d marks the D form. Peptide text beside a SMILES is read from it. * marks the point of attachment. Lys(Me,(CH2)4NMe(CH2)5CO) = CN(CCCCCC(=O)[*:3])CCCCN(C)CCCC[C@H](N[*:1])C(=O)[*:2]; Lys(Me,(CH2)4NMe(CH2)4CO) = CN(CCCCC(=O)[*:3])CCCCN(C)CCCC[C@H](N[*:1])C(=O)[*:2]; Trp(7-Me) = Cc1cccc2c(C[C@H](N)C(=O)O)c[nH]c12; Trp(1-Me) = Cn1cc(C[C@H](N)C(=O)O)c2ccccc21; NH(2-(3-pyridyl)ethyl) = c1cncc(CCN*)c1; 2Nal = N[C@@H](Cc1ccc2ccccc2c1)C(=O)O; 3Pal = N[C@@H](Cc1cccnc1)C(=O)O; Thp = NC1(C(=O)O)CCOCC1; Me2NCH2CH2 = CN(C)CC*; Aib = CC(C)(N)C(=O)O; Sar = CNCC(=O)O

Legend:
[1] = Protease stability in simulated gastric fluids (FaSSGF) (Table 7); assay type: in vitro ADME; details: fassgf with pepsin, 60 min, 37° C., read-out: Remaining percentage of peptide compound, FaSSGF 60 (min)
Procedure: (§1) Studies were carried out in simulated intestinal fluid (SIF) and simulated gastric fluid (SGF) to evaluate gastric stability of the peptide compounds disclosed herein.
For clarification, the term “Pepsin-SGF” refers to a solution of simulated gastric fluid containing pepsin whereas “SGF media” refers to a solution of simulated gastric fluid without pepsin. Pepsin-SGF was prepared by dissolving 320 mg Pepsin (Merck Millipore) in 100 mL SGF media concentrate (PROSENSE).
(§2) Peptide compounds were first dissolved at 1 mM stock concentration in 0.01 HCl (+/−10% of DMSO) and were than diluted further with water to a stock concentration of 20 μM. Final peptide concentration in the incubation was 1 μM.
(§3) To 76 μL of the Pepsin-SGF buffer, 4 μL of the 20 μM peptide stock solution was added and incubated at 37° C. At each timepoint (0, 60, 120 and 240 minutes) the reaction was quenched with addition of 80 μL Ethanol (0,1% HCOOH). The samples were centrifuged for 20 minutes and an aliquot of the supernatant 100 μL were transferred to a LoBind-MTP plate and analyzed by LCMS/MS. The peak area response was calculated at each time point for each test compound. As internal reference, the peak area response of the same test compound at T0 was calculated. The percentage remaining at each timepoint was calculated based on the peak area response ratio of the test compound at T0. Time 0 was set to 100%, and all later timepoints were calculated relative to time 0.
as §3, with “(0.1%” for “(0,1%”

[2] = tested on: IL-23 induced STAT3 signaling (IL-23 receptor) in HEK-Blue IL-23 cells; test: Inhibition of IL-23 induced STAT3 signaling in HEK-Blue IL-23 cells, SEAP reporter (Table 9); assay type: cell-based; details: human IL23 0.25 ng/ml, overnight, read-out: Inhibition of IL-23 induced pSTAT3 (IC50 nM)
Text: HEK-Blue™ IL-23 cells (INVIVOGEN) are designed for the detection of bioactive human (hIL-23) and murine IL-23 (mIL-23) by monitoring the activation of the STAT3 pathway. Binding of IL-23 to its receptor on the surface of HEK-Blue™ IL-23 cells triggers a signaling cascade leading to the activation of STAT3 and the subsequent production of secreted embryonic alkaline phosphatase (SEAP). This can be readily assessed using QUANTI-Blue™ Solution, a SEAP detection reagent.
HEK-Blue™ IL-23 cells were cultured as described by INVIVOGEN.
On the first day of assay 10 μL of the HEK-BLUE IL23 cell suspension (final concentration: 10,000 cells/well) and 10 μl of serially diluted peptides solutions were dispensed into a 384-well assay plate. After pre-incubation of the reaction mixtures at 37° C./5% CO2/95% humidity for 60 minutes, 10 μl of the humanIL23 cytokine (final concentration: 0.25 ng/ml) was added to each well for the STAT3 signaling activation. The plate was incubated overnight at 37° C./5% CO2/95% humidity.
On the second day 20 μl per well of QUANTI-BLUE detection solution (prepared according to the manufacture instruction) was dispensed into a new 384-well plate and followed by the transfer of 5 μl supernatant of the overnight incubated cell/sample mixtures. After incubation of 45 min at room temperature signals were measured with PHERASTAR (BMG) at OD 620-655 nm.
Dose response data were fitted with XLfit.

[3] = Solubility of peptide compounds in buffer formulations (Table 5); assay type: physicochemical; details: target 1 mg/ml
Procedure: Prior to the solubility measurement of a peptide batch, its purity was determined through UHPLC/MS method A.
(§4) For solubility testing the target concentration was 1 mg pure compound/ml. Therefore, solutions from solid samples were prepared in a buffer system at a concentration of 1 mg/mL compound. The solid samples were obtained by drying down aliquots of a freshly prepared dimethyl sulfoxide stock solution using a THERMO SPEEDVAC vacuum centrifuge. The dry down time was 3 hours.
The following buffer systems were applied: • Solubility buffer system A) 50 mM HCl pH 1.2 • Solubility buffer system B) 50 mM phosphate buffer pH 6.5 • Solubility buffer system C) 50 mM phosphate buffer pH 7.4 • UHPLC-UV was performed using analytical method A after 2 hours of gentle agitation from the filtered (0.45 μm filter plates) solutions, which were obtained by 10 mins of centrifugation forced filtration at 1500 RCF (relative centrifugal acceleration).
The solubility was determined by the comparison of the UV peak area of 2 μL-injections of a buffered sample diluted 1:10 with a standard curve of a dimethyl sulfoxide reference sample of known concentration. The different extinction coefficients were taken into account for the calculation.

[4] = Protease stability in simulated intestinal fluids (FaSSIF) (Table 7); assay type: in vitro ADME; details: fassif with pancreatin, 37° C.
Procedure: as §1
Similarly, the term “Pancreatin-SIF” refers to a solution of simulated intestinal fluid containing pancreatin whereas “SIF-media” refers to a solution of simulated intestinal fluid without pancreatin. Pancreatin-SIF was prepared by dissolving 1 mg Pancreatin (MP Biomedicals) in 10 mL SIF media concentrate (PROSENSE).
as §2
as §3, with “(0.1%” for “(0,1%”

[5] = Chemical stability (relative purity loss) of peptide compounds in buffer formulations (Table 6); assay type: physicochemical; details: 2° C. and 37° C.
Procedure: Purity of a peptide batch was determined through UHPLC/MS method A prior to chemical stability measurement.
as §4, with “stability assessment,” for “solubility testing”, “0.5” for “1”, “acetonitrile” for “dimethyl sulfoxide”
The following buffer systems were applied: • Solubility buffer system A): 50 mM HCl pH 1.2+Acetonitrile (3:1). • Solubility buffer system B): 50 mM phosphate buffer pH 6.5+Acetonitrile (3:1). • Solubility buffer system C): 50 mM phosphate buffer pH 7.4+Acetonitrile (3:1). • Prepared solutions were stored for 24 hours at 2° C. and 37° C.
After this time course, the samples were centrifuged for 15 min at 2500 RCF to create a 1:5 dilution of the supernatant. Then 2 μl of the dilution were analyzed with UHPLC-UV applying method A.
The chemical stability was rated through the relative loss of purity calculated by the equation: […]

[6] = Buffer pH 1.1 (head; method: 50 mM HCl pH 1.2), 2 h agitation, read-out: Solubility, Buffer pH 1.1
[7] = aqueous buffer, 50 mM phosphate buffer pH 6.5, 2 h agitation, read-out: Solubility, Buffer pH 6.5
[8] = aqueous buffer, 50 mM phosphate buffer pH 7.4, 2 h agitation, read-out: Solubility, Buffer pH 7.4

SMILES	remaining at 1 h, 1 µM [1] [%]	IC50 [2] [nM]	solubility at 2 h [3, 6] [µg/mL]	solubility at 2 h [3, 7] [µg/mL]	solubility at 2 h [3, 8] [µg/mL]	remaining at 1 h, 1 µM ([4]; 60 min, read-out: Remaining percentage of peptide compound, FaSSIF 60 (min)) [%]	remaining at 2 h, 1 µM ([4]; 120 min, read-out: Remaining percentage of peptide compound, FaSSIF 120 (min)) [%]	remaining at 4 h, 1 µM ([4]; 240 min, read-out: Remaining percentage of peptide compound, FaSSIF 240 (min)) [%]	degraded at 24 h ([5]; 50 mM phosphate buffer pH 6.5 + acetonitrile (3:1), read-out: Chemical stability (relative purity loss), Buffer pH 6.5) [%]	degraded at 24 h ([5]; 50 mM phosphate buffer pH 7.4 + acetonitrile (3:1), read-out: Chemical stability (relative purity loss), Buffer pH 7.4) [%]	degraded at 24 h ([5]; 50 mm hcl + acetonitrile, Buffer pH 1.1 (head; method: 50 mM HCl pH 1.2 + acetonitrile 3:1), read-out: Chemical stability (relative purity loss), Buffer pH 1.1) [%]
Cc1cccc2c(C[C@@H]3NC(=O)CCCCCN(C)CCCCN(C)CCCC[C@@H](C(=O)NCC(=O)N[C@@H](Cc4cccnc4)C(=O)N(C)CC(N)=O)NC(=O)C(C)(C)NC(=O)[C@H](Cc4ccc5ccccc5c4)NC(=O)[C@H](Cc4ccc(OCCN(C)C)cc4)NC(=O)C4(CCOCC4)NC(=O)[C@H](CCC(N)=O)NC3=O)c[nH]c12 [compound 26] ([Trp(7-Me)]Q[Thp]Y(Me2NCH2CH2)[2Nal][Aib][Lys(Me,(CH2)4NMe(CH2)5CO)]G[3Pal][Sar]-NH2; lactam N-7)	95	2.32	≥ 1000	≥ 1010	≥ 890	92	88	87			
CC(=O)NCCCC[C@@H]1NC(=O)[C@H](Cc2c[nH]c3c(C)cccc23)NC(=O)CCCCN(C)CCCCN(C)CCCC[C@@H](C(=O)N[C@@H](CO)C(=O)N[C@@H](Cc2cccnc2)C(=O)N(C)CC(N)=O)NC(=O)C(C)(C)NC(=O)[C@H](Cc2ccc3ccccc3c2)NC(=O)[C@H](Cc2ccc(OCCN(C)C)cc2)NC(=O)C2(CCOCC2)NC1=O [compound 39] ([Trp(7-Me)]K(Ac)[Thp]Y(Me2NCH2CH2)[2Nal][Aib][Lys(Me,(CH2)4NMe(CH2)4CO)]S[3Pal][Sar]-NH2; lactam N-7)		1.78	≥ 1000	≥ 890	850 (≈ 516 µM)				0	0	3.7
CN(C)CCOc1ccc(C[C@@H]2NC(=O)C3(CCOCC3)NC(=O)[C@H](CCC(N)=O)NC(=O)[C@H](Cc3cn(C)c4ccccc34)NC(=O)CCCCCN(C)CCCCN(C)CCCC[C@@H](C(=O)NCC(=O)NCCc3cccnc3)NC(=O)C(C)(C)NC(=O)[C@H](Cc3ccc4ccccc4c3)NC2=O)cc1 [compound 22] ([Trp(1-Me)]Q[Thp]Y(Me2NCH2CH2)[2Nal][Aib][Lys(Me,(CH2)4NMe(CH2)5CO)]G-{NH(2-(3-pyridyl)ethyl)}; lactam N-7)		24.8	≥ 1020	≥ 920	330 (≈ 224 µM)						
